Test results published in US20100119612A1, “NANOPARTICLES COMPRISING NON-CRYSTALLINE DRUG” (Bend Research, Inc, priority 2007, published 2010).
Values after ≈ are worked out from the molar mass of the structure shown.

Experiments:
[1] = Log P of the drug; assay type: physicochemical; conditions: octanol/water; method not stated
Description: By hydrophobic is meant that the Log P of the drug is at least 4. The LogP of the drug may be at least 5, at least 6, or even at least 7. Log P, defined as the base 10 logarithm of the ratio of (1) the drug concentration in an octanol phase to (2) the drug concentration (in its unionized form if the drug may be ionized) in a water phase when the two phases are in equilibrium with each other, is a widely accepted measure of hydrophobicity. Log P may be measured experimentally or calculated using methods known in the art. When using a calculated value for Log P, the highest value calculated using any generally accepted method for calculating Log P is used. […] Preferably the Log P value is calculated by using the average value estimated using Crippen's, Viswanadhan's, and Broto's fragmentation methods.

[2] = Solubility of crystalline drug in 2 wt % NaTC/POPC; assay type: physicochemical; conditions: 2 wt % NaTC/POPC solution, fassgf or other biorelevant, thermodynamic from solid
[3] = Measurement of free drug by 19F NMR; assay type: physicochemical; conditions: after 120 minutes; deuterated PBS with 2.0 wt % NaTC/POPC; 37° C.; 1000 μg/mL Drug 1 if all dissolved
Method: Alternatively, free drug for a nanoparticle suspension can be measured with nuclear magnetic resonance (NMR). In this method, the nanoparticles are equilibrated in an NMR tube with a buffered deuterium oxide solution. A specified amount of a reference standard is also added to the sample, such that the final concentration of the standard in the tube is known. An NMR spectrum is then acquired, and the integration of the drug peak(s) is compared to that of the reference standard to determine the actual dissolved drug concentration. Depending on the drug, either proton NMR (in which case a suitable reference standard is deuterated trimethylsilyl propionic acid) or fluorine NMR (in which case a suitable reference standard is trifiuoroacetic acid) may be employed. Because NMR is sensitive only to materials in the solution state or in micelles, only the drug that is not sequestered in nanopartides is measured by this method.
The solution was mixed, and an ^19F internal standard solution of trifluoroacetic acid (TFA) was added. […] This solution was vortexed 1 minute, and then carefully transferred to an 8 mm glass NMR tube.
Fluorine spectra of the sample was recorded at 282.327 MHz on a Varian Gemini 2000, 300 MHz NMR equipped with a Nalorac 8 mm indirect detection probe. […] Drug resonances were integrated relative to the internal standard peak and the drug concentration determined. […]

[4] = In vivo evaluation in dogs (Example 2, oral suspension, plasma LC/MS/MS); set-up: species or system male beagle dogs; conditions: fasted dogs, oral gavage, approx. 50 mL of 1.2 mgA/mL suspension
Method: The nanoparticles of Example 2 were evaluated in vivo in dogs. Samples were dosed orally as a suspension to 6 male beagle dogs.
Animals were fasted overnight (at least 10 hours predose) through 8 hours postdose. Approximately 50 mL of suspension (1.2 mgA/mL) was administered to each dog via oral gavage, followed by approximately 5 mL water. Whole-blood samples (7-mL sodium heparin Vacutainer tubes) were taken from the jugular vein before dosing and at 0.5, 1, 2, 3, 4, 6, 8, 12, 24, and 28 hours after dosing. […] was harvested into tubes containing K2EDTA anticoagulant. Blood was maintained on wet ice prior to centrifugation to obtain plasma. Centrifugation began within 1 hour of collection, and samples were centrifuged at 2500 rpm for 15 minutes. Plasma was maintained on dry ice prior to storage at approximately −70° C. Plasma was analyzed using liquid chromatography with tandem mass spectrometry (LC/MS/MS). Crystalline Drug 1 was tested for comparison.

Compound | logP [1] | solubility [2] [µg/mL] | Free Drug [3] [µg/mL] | AUC0-∞ [4] | Cmax [4] | Tmax [4]
CC[C@@H]1C[C@H](N(Cc2cc(C(F)(F)F)cc(C(F)(F)F)c2)C(C)=O)c2cc(C(F)(F)F)ccc2N1C(=O)OC(C)C [Drug 2, [2R,4S] 4-[acetyl-(3,5-bis-trifluoromethyl-benzyl)-amino]-2-ethyl-6-trifluoromethyl-3,4-dihydro-2H-quinoline-1-carboxylic acid isopropyl ester] | ~7.55 | ~8 (≈ 13.4 µM) |  |  |  | 
CCOC(=O)N1c2ccc(C(F)(F)F)cc2[C@@H](N(Cc2cc(C(F)(F)F)cc(C(F)(F)F)c2)C(=O)OC)C[C@H]1CC [Drug 1, [2R,4S] 4-[(3,5-bis-trifluoromethyl-benzyl)-methoxycarbonyl-amino]-2-ethyl-6-trifluoromethyl-3,4-dihydro-2H-quinoline-1-carboxylic acid ethyl ester] | ~7.55 |  | 15 | <LOQ | <LOQ* | <LOQ
